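A five-concentration, 48-hour dose response in 96-well plates underlies each endpoint, interpolated linearly between surrounding concentrations. The concentration for 50% growth inhibition is given as GI50.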 Calls of active or inactive are those of the source. Rule as the data show it: active = GI50 up to about 1.1 µM and inactive = higher.
Legend:
Assay in all cases: DTP human tumour cell line panel, 48 h
ACHN = tested on: ACHN
SF-539 = tested on: SF-539
RPMI-8226 = tested on: RPMI-8226
IGROV-1 = tested on: IGROV-1
MCF7 = tested on: MCF7
DU-145 = tested on: DU-145
SK-MEL-2 = tested on: SK-MEL-2
HOP-62 = tested on: HOP-62
SN12C = tested on: SN12C
HT-29 = tested on: HT-29
SF-295 = tested on: SF-295
M14 = tested on: M14
NCI-H460 = tested on: NCI-H460
MDA-N = tested on: MDA-N
OVCAR-8 = tested on: OVCAR-8
SR = tested on: SR
SNB-75 = tested on: SNB-75
UACC-62 = tested on: UACC-62
HCC 2998 = tested on: HCC 2998

Measured: GI50

c1cc(CCN2CCCCC2)ccn1
inactive: ACHN > 100 µM | SF-539 > 100 µM | RPMI-8226 > 100 µM | IGROV-1 > 100 µM | MCF7 > 100 µM | DU-145 > 100 µM | SK-MEL-2 > 100 µM | HOP-62 > 100 µM | SN12C > 100 µM | HT-29 > 100 µM | SF-295 > 100 µM | M14 > 100 µM | NCI-H460 > 100 µM | MDA-N > 100 µM | OVCAR-8 > 100 µM | SR 33.3 µM | SNB-75 > 100 µM | UACC-62 > 100 µM

N=c1sc(N2CCOCC2)nn1CC(=O)c1ccccc1
inactive: ACHN > 100 µM | RPMI-8226 > 100 µM | IGROV-1 > 100 µM | MCF7 53.5 µM | DU-145 > 100 µM | SK-MEL-2 > 100 µM | HOP-62 > 100 µM | HCC 2998 > 100 µM | SN12C > 100 µM | HT-29 > 100 µM | SF-295 > 100 µM | M14 > 100 µM | NCI-H460 > 100 µM | MDA-N > 100 µM | OVCAR-8 > 100 µM | SNB-75 > 100 µM | UACC-62 > 100 µM

CCCCc1ccc(Nc2nc3c(ncn3C3OC(COC(C)=O)C(OC(C)=O)C3OC(C)=O)c(=O)[nH]2)cc1 (stereo not given)
inactive: ACHN 65 µM | SF-539 26.2 µM | RPMI-8226 20.4 µM | IGROV-1 17.5 µM | MCF7 23 µM | DU-145 31.3 µM | SK-MEL-2 15.7 µM | HOP-62 17.8 µM | HCC 2998 20.7 µM | SN12C 24.2 µM | HT-29 19.1 µM | SF-295 21.2 µM | M14 20.6 µM | NCI-H460 18.3 µM | MDA-N 19.5 µM | OVCAR-8 18.4 µM | SR 13.5 µM | UACC-62 19 µM

CCN(CC)CCSc1c(C(C)=O)c(=O)n(-c2ccccc2)c(=S)n1-c1ccccc1
inactive: ACHN 3.77 µM | SF-539 2.4 µM | RPMI-8226 2.13 µM | IGROV-1 13 µM | MCF7 3.18 µM | DU-145 3.08 µM | SK-MEL-2 15.5 µM | HOP-62 18.9 µM | HCC 2998 11.9 µM | SN12C 14.4 µM | HT-29 16.7 µM | SF-295 > 78 µM | M14 2.05 µM | NCI-H460 21.1 µM | MDA-N 6.68 µM | OVCAR-8 3.46 µM | SNB-75 33.3 µM | UACC-62 14.4 µM

Cn1c(=O)c2c(nc3n(Cc4ccccc4)c(=O)c(NCCBr)cn23)n(C)c1=O
inactive: ACHN 15.4 µM | RPMI-8226 23.8 µM | IGROV-1 33 µM | MCF7 24.4 µM | DU-145 27.8 µM | SK-MEL-2 17.2 µM | HOP-62 18.8 µM | HCC 2998 16.1 µM | SN12C 32.6 µM | HT-29 41.2 µM | SF-295 21.9 µM | M14 33.1 µM | NCI-H460 26.9 µM | MDA-N 57.3 µM | OVCAR-8 14.7 µM | SR 6.43 µM | SNB-75 20 µM | UACC-62 26.5 µM

O=c1onc2n1-c1ccc(Cl)cc1C(=S)N1CSCC21 (stereo not given)
inactive: ACHN 66.8 µM | RPMI-8226 31.3 µM | IGROV-1 26.5 µM | MCF7 28.4 µM | DU-145 34.2 µM | SK-MEL-2 25.1 µM | HOP-62 63.1 µM | HCC 2998 19.5 µM | SN12C 29.6 µM | HT-29 24.5 µM | SF-295 17.5 µM | M14 11.1 µM | NCI-H460 20.9 µM | MDA-N 8.71 µM | OVCAR-8 18.1 µM | SR 15.9 µM | SNB-75 30.4 µM | UACC-62 67.8 µM

COc1ccc(OCC(=N/NC(=O)c2ccncc2)/N=C/c2ccncc2)cc1
inactive: ACHN > 100 µM | SF-539 > 100 µM | RPMI-8226 40.7 µM | IGROV-1 91.2 µM | MCF7 54.6 µM | DU-145 > 100 µM | SK-MEL-2 > 100 µM | HOP-62 71.8 µM | HCC 2998 > 100 µM | SN12C > 100 µM | HT-29 57 µM | SF-295 42.9 µM | M14 82 µM | NCI-H460 > 100 µM | MDA-N 17.6 µM | OVCAR-8 > 100 µM | UACC-62 53.6 µM

Cc1c[n+]([O-])c2ccccc2[n+]1[O-]
inactive: ACHN > 100 µM | SF-539 > 100 µM | RPMI-8226 > 100 µM | IGROV-1 > 100 µM | MCF7 > 100 µM | DU-145 > 100 µM | SK-MEL-2 > 100 µM | HOP-62 > 100 µM | SN12C > 100 µM | HT-29 > 100 µM | SF-295 > 100 µM | M14 > 100 µM | NCI-H460 > 100 µM | MDA-N > 100 µM | OVCAR-8 > 100 µM | SR > 100 µM | SNB-75 > 100 µM | UACC-62 > 100 µM

CCCC1C(C#N)(C#N)C(C#N)=C(N)C1(C)C(C)=O (stereo not given)
inactive: ACHN > 100 µM | SF-539 > 100 µM | RPMI-8226 > 100 µM | IGROV-1 > 100 µM | MCF7 > 100 µM | DU-145 > 100 µM | SK-MEL-2 > 100 µM | HCC 2998 > 100 µM | SN12C > 100 µM | HT-29 > 100 µM | SF-295 > 100 µM | M14 > 100 µM | MDA-N 42.7 µM | OVCAR-8 > 100 µM | SNB-75 4.42 µM | UACC-62 > 100 µM

CC(=O)Nc1ccc(S(=O)(=O)Nc2nc(-c3ccc(Cl)cc3)cc(N3N=C(c4ccc(Br)cc4)CC3c3ccccc3)n2)cc1 (stereo not given)
inactive: ACHN 24.5 µM | SF-539 16.9 µM | RPMI-8226 12.1 µM | IGROV-1 11.8 µM | MCF7 2.87 µM | DU-145 20.4 µM | SK-MEL-2 14.7 µM | HOP-62 16.3 µM | SN12C 16 µM | HT-29 15 µM | SF-295 16.6 µM | M14 18.1 µM | NCI-H460 16.9 µM | MDA-N 5.51 µM | OVCAR-8 17.9 µM | SR 16.2 µM | UACC-62 12.6 µM

OC(c1cc(-c2ccc(Cl)cc2)nc2ccccc12)C1CCCCN1 (stereo not given)
inactive: ACHN 1.95 µM | SF-539 1.79 µM | RPMI-8226 1.37 µM | IGROV-1 1.76 µM | MCF7 1.82 µM | DU-145 1.74 µM | SK-MEL-2 2.03 µM | HOP-62 1.61 µM | HCC 2998 2.08 µM | SN12C 1.75 µM | HT-29 1.9 µM | SF-295 1.94 µM | M14 1.77 µM | NCI-H460 2.08 µM | MDA-N 1.95 µM | OVCAR-8 2.08 µM | SNB-75 2.43 µM | UACC-62 1.82 µM

Cc1ccsc1/C=N/Nc1ccccn1
inactive: ACHN 74.6 µM | RPMI-8226 19.3 µM | IGROV-1 16.9 µM | MCF7 1.71 µM | DU-145 55.6 µM | SK-MEL-2 34.3 µM | HOP-62 > 100 µM | HCC 2998 99.5 µM | SN12C > 100 µM | HT-29 32.8 µM | SF-295 > 100 µM | M14 54 µM | MDA-N 50.6 µM | OVCAR-8 66.1 µM | SNB-75 50.2 µM | UACC-62 74 µM

CCCCn1c(O)nc2c(N)ncnc21
inactive: ACHN > 100 µM | SF-539 > 100 µM | IGROV-1 > 100 µM | MCF7 > 100 µM | DU-145 > 100 µM | SK-MEL-2 > 100 µM | HOP-62 > 100 µM | HCC 2998 > 100 µM | SN12C > 100 µM | HT-29 > 100 µM | SF-295 > 100 µM | M14 > 100 µM | NCI-H460 > 100 µM | MDA-N > 100 µM | OVCAR-8 > 100 µM | SNB-75 > 100 µM | UACC-62 > 100 µM

COc1cc(Oc2nc3cc(F)c(F)cc3nc2-c2ccccc2)cc(OC)c1OC
inactive: ACHN 43.5 µM | SF-539 26.8 µM | IGROV-1 > 100 µM | MCF7 29.5 µM | DU-145 > 100 µM | SK-MEL-2 > 100 µM | HOP-62 82 µM | SN12C > 100 µM | HT-29 89.3 µM | SF-295 46.3 µM | M14 45.3 µM | NCI-H460 63.8 µM | MDA-N > 100 µM | OVCAR-8 > 100 µM | SR 78.9 µM | SNB-75 20.4 µM | UACC-62 25.8 µM

ClC(Cl)(Cl)C(N1CCN(c2ccccc2)CC1)N1CCN(c2ccccc2)CC1
inactive: ACHN > 100 µM | RPMI-8226 > 100 µM | IGROV-1 > 100 µM | MCF7 > 100 µM | DU-145 > 100 µM | SK-MEL-2 > 100 µM | HOP-62 > 100 µM | SN12C > 100 µM | HT-29 > 100 µM | M14 > 100 µM | NCI-H460 > 100 µM | MDA-N > 100 µM | OVCAR-8 > 100 µM | SR 45 µM | SNB-75 > 100 µM | UACC-62 > 100 µM

C/C1=C\[C@H](C)C[C@H](C)OC(=O)C[C@H](c2ccc(O)cc2)NC(=O)[C@H](Cc2ccc(O)c(Br)c2)N(C)C(=O)[C@H](C)NC(=O)[C@@H](C)C1
inactive: ACHN > 25 µM | RPMI-8226 > 25 µM | IGROV-1 > 25 µM | MCF7 > 25 µM | DU-145 > 25 µM | SK-MEL-2 > 25 µM | HOP-62 > 25 µM | SN12C > 25 µM | HT-29 > 25 µM | SF-295 > 25 µM | M14 > 25 µM | MDA-N > 25 µM | OVCAR-8 > 25 µM | SR > 25 µM | SNB-75 > 25 µM | UACC-62 > 25 µM
